Assay results as given in patent US9937204B2 (priority 2008, dated 2018).

Legend:
Candida species = assay: Time-kill assay, all species together; type: cell-based; settings: chlorhexidine gluconate concentrations tested (0.015-0.12%); within one minute of exposure
Method: Following exposure, 100 μl aliquots were diluted 50% with 0.85% saline and plated onto potato dextrose agar plates. The aliquots were allowed to dry and then were streaked to remove the yeast from the compound. The plates were incubated at 35° C. for 24 hours. Colony counts were taken and were compared to initial inoculum. The same test was done treating the four Candida species with chlorhexidine gluconate at concentrations ranging from 0.015-0.12%. Chlorhexidine gluconate at concentration 0.12% is commonly prescribed to patients with oral disease.

non-albicans isolates = settings: out of 100 non-albicans isolates from HIV patients with thrush; cited from earlier work

Row | Structure (SMILES) | Time-kill result in words (colony count) (Candida species) | Number of isolates resistant (non-albicans isolates)
1 | N=C(NCCCCCCNC(=N)NC(=N)Nc1ccc(Cl)cc1)NC(=N)Nc1ccc(Cl)cc1.O=C(O)[C@H](O)[C@@H](O)[C@H](O)[C@H](O)CO.O=C(O)[C@H](O)[C@@H](O)[C@H](O)[C@H](O)CO [chlorhexidine gluconate, Chlorhexidine gluconate] | did not reduce the colony count | 
2 | OC(Cn1cncn1)(Cn1cncn1)c1ccc(F)cc1F [fluconazole] |  | 88
